From patent US3989836A, “Method for treating cardiovascular circulatory insufficiencies and hypotonia with 2-hydroxyphenyl-1-oxa-4-azaspiroalkane derivatives” (Warner-Lambert Company, priority 1973, dated 1976)
Read-outs that look alike come from different tables or passages of the source.

Experiments:
Assay type in all cases: in vivo
[1] = Toxicity on mice (LD50 i.g., largest dose i.v. at which all animals survive); settings: for LD50: mouse, in vivo, po; for LD50 i.g.: mice, footnote: not determinable because of insufficient resorption, no dosage-dependent death of the animals
Method: I. toxicity was determined on mice in the usual manner; the test and comparison substances being administered in aqueous solution by means of a stomach probe.

[2] = as above
average blood pressure [3] = test: Sympathomimetic action: increase of the average blood pressure by 25% over the initial value (narcotised dogs); settings: for ED (25% increase): Canis lupus familiaris, read-out: dose for increase of the average blood pressure by 25% over the initial value
Method: Ii. sympathomimetic action was determined by measurement of the arterial and venous blood pressure using Statham transducers. The measured values were recorded by means of a direct recording instrument. As experimental animals, adult dogs of both sexes, were used; these had been narcotised with pentobarbital. During the experiment, the animals were kept at their specific body temperature by means of rectum-controlledinfra-red lamps. The compounds tested were injected, in the form of an isotonic solution, into the side branch of the vena femoralis. In the case of intraduodenal administration, the animals were laparotomised, and a cannula was fixed into the small intestine so that the substance, in the form of an aqueous solution, could be introduced directly into the intestine. Furthermore, the pylorus was ligatured in order to prevent regurgitation of the substance into the stomach. In the case of intragastric administration, the substances were administered in the form of an aqueous solution by means of a stomach probe.

average blood pressure [4] = test: Sympathomimetic action: increase of the average blood pressure in % of initial value (awake dogs); settings: for increase of the average blood pressure: i.g. up to 20 mg/kg
Method: Ii. sympathomimetic action was determined by measurement of the arterial and venous blood pressure using Statham transducers. The measured values were recorded by means of a direct recording instrument. In the case of intragastric administration, the substances were administered in the form of an aqueous solution by means of a stomach probe. Quiet and compatible dogs were trained to lie, without sedation, for a few hours on an operating board. Under local anesthesia, a catheter was introduced into the arteria femoralis. A measurement of arterial blood pressure was then carried out using the catheter and a Statham transducer.

SMILES	LD50 [1] [mg/kg]	largest dose i.v. at which all animals survive [2] [mg/kg]	ED (25% increase) (average blood pressure [3]; intraduodenal, i.d.) [mg/kg]	duration of increase of the average blood pressure by 25% over the initial value (average blood pressure [3]; i.d. 2.0 mg/kg)	duration of increase of the average blood pressure (average blood pressure [4]; i.g. 4 mg/kg)	increase of the average blood pressure in % of initial value (average blood pressure [4]; i.g. 4 mg/kg) [%]	increase of the average blood pressure in % of initial value (average blood pressure [4]; i.v. 0.05 mg/kg)	ED (25% increase) (average blood pressure [3]; po, i.g.) [mg/kg]	duration of increase of the average blood pressure by 25% over the initial value (average blood pressure [3]; i.g. 2.0 mg/kg)	duration of increase of the average blood pressure (average blood pressure [4]; i.g. 2 mg/kg)	increase of the average blood pressure in % of initial value (average blood pressure [4]; i.g. 2 mg/kg) [%]	duration of increase of the average blood pressure by 25% over the initial value (average blood pressure [3]; i.g. 4.0-16.0 mg/kg)	duration of increase of the average blood pressure (average blood pressure [4]; i.g. 16 mg/kg)	increase of the average blood pressure in % of initial value (average blood pressure [4]; i.g. 16 mg/kg) [%]	increase of the average blood pressure in % of initial value (average blood pressure [4]; i.v. 1 mg/kg)	LD50 i.g. [1]	increase of the average blood pressure (average blood pressure [4])
Oc1cccc(C2CNC3(CCCCC3)O2)c1 (stereo not shown) [A, 2-(3'-hydroxyphenyl)-1-oxa-4-azaspiro[4,5]decane]	> 400	3.3	2	> 50 '	> 60 '	40	50-80%	–	–	–	–	–	–	–	–	–	–
Oc1cccc(C2CNC3(CCCCCC3)O2)c1 (stereo not shown) [B, 2-(3'-hydroxyphenyl)-1-oxa-4-azaspiro[4,6]undecane]	~400	3.3	–	–	–	–	40-70%	2	> 60 '	70 '	35	–	–	–	–	–	–
CC1=CC2(CC(C)(C)C1)NCC(c1cccc(O)c1)O2 (stereo not shown) [C, 7,9,9-trimethyl-2-(3'-hydroxyphenyl)-1-oxa-4-azaspiro-[4,5]dec-6-ene]	~1200	20.7	–	–	–	–	–	4 to 16	–	–	–	60 '	34 '	50	30-60%	–	–
NCC(O)c1cccc(O)c1 (stereo not shown) [D, 1-(3'-hyroxyphenyl)-2-aminoethanol, reference compound]	–	3.3	> 20	–	–	–	50-70%	–	–	–	–	–	–	–	–	not determinable	without effect
CCNCC(O)c1cccc(O)c1 (stereo not shown) [E, 1-(3'-hydroxyphenyl)-2-ethylaminoethanol, reference compound]	–	7.25	> 20	–	–	–	25%	–	–	–	–	–	–	–	–	not determinable	without effect
